Measured values taken from paper PMC3591361 (PLoS ONE, 2013).
In brackets after ≈: the same amount, converted by molar mass.

Experiments:
[1] = free drug; stated without reference; cited from earlier work
[2] = combination therapy; weekly i.v. infusion for paclitaxel, twice-weekly i.v. infusion for 17-AAG; cited from earlier work
in vivo = assay: in vivo; parameters: species or system mice; conditions: i.v.; for half-life: female, athymic nude (nu/nu), mouse, iv, read-out: t1/2 (elimination half-life); for plasma concentration at 4 h: free drug administration (combined free drugs in DMSO)
Description: Human ovarian cancer SKOV-3 cells (2 x 10^6 in 0.1 ml matrigel/DMEM mixture) were implanted subcutaneously in each flank of 5–6 week-old female athymic nude mice (nu/nu, Charles River, Wilmington, MA). The tumor size was measured using a caliper, and the tumor volume was calculated as ½ × length × width^2.
Once SKOV-3 tumor volumes reached 100–300 mm^3, the mice were randomized into study groups (4 mice per group). […] At 5, 10, 15, 30, 60, 120 and 240 min post injection, whole blood was collected via the retro-orbital bleeding. Normal organs (liver, lung, spleen, kidney and heart) and tumor tissues were harvested at 120 min. […] The HPLC system (Waters, Milford, MA) consisted of a Waters 2795 pump, a Phenomenex (Torrance, CA) C8 column (5 µm, i.d. 4.6 mm × 150 mm) and a Waters 996 photodiode array detector. α-Naphthoflavone was used as an internal standard. […] For tissue homogenate samples, a gradient elution of A: sodium phosphate buffer and B: methanol (0–30 min 46% A, 30.01–40 min 28% A, 40.01–45 min 46% A) was used. The flow rate was 1.5 ml/min at 40°C. The assay methodology was established using blank plasma and tissue homogenate samples spiked with known drug concentrations. […] Representative chromatograms of the pure drugs, an extract of drug-spiked liver tissue, and an extract of blank liver tissue at 227, 333 and 281 nm are shown in Fig. 2.

[3] = Stability of ICG fluorescence in HBS at 37°C; assay type: physicochemical
Description: To confirm the incorporation of ICG into the micelles, the stability of ICG-labeled micelles was studied at 37°C. Freshly prepared free ICG solution in HBS at the identical concentration was used as a control. At 0, 2, 4, 8, 24 and 48 h, aliquots of the micellar or free ICG solution were analyzed for the fluorescence intensity at 800 nm using Odyssey imaging system (LI-COR Biosciences, Lincoln, NE). All samples were prepared and analyzed in triplicates.

[4] = In vivo whole-body NIR fluorescence imaging in SKOV-3 tumor-bearing mice; conditions: i.v., ICG dose 2 mg/kg, 800 nm channel
Description: ICG-labeled micelles were administered to SKOV-3 tumor-bearing mice via the tail vein injection at an ICG dose of 2 mg/kg. Freshly prepared free ICG solution in HBS was i.v. injected at the same dose to the control mice. Immediately following the injection (0 h) and at 1, 2, 4, 6, 24 and 48 h, the mice were anesthetized under a continuous flow of isoflurane/oxygen, and the spectral fluorescence signals of the whole body images (800 nm channel) were obtained using the Odyssey imaging system.

[5] = plasma, combined free drugs in DMSO, 20 mg/kg paclitaxel + 37.5 mg/kg 17-AAG, plasma, mean ± SD, n = 4

SMILES	aqueous solubility [1] [µM]	maximum tolerated dose in cancer patients [2] [mg/m^2]	half-life (in vivo; [5]) [min]	plasma concentration at 4 h (in vivo)	decrease in fluorescence emission intensity ([3]; 8 h)	decrease in fluorescence emission intensity ([3]; 48 h)	clearance of fluorescence signal from the circulation/body [4]	AUC (in vivo; combined free drugs in DMSO, 20 mg/kg paclitaxel + 37.5 mg/kg 17-AAG, plasma, mean ± SD, n = 4) [uM⋅min]
C=CCNC1=C2C[C@@H](C)C[C@H](OC)[C@H](O)[C@@H](C)/C=C(\C)[C@H](OC(N)=O)[C@@H](OC)/C=C\C=C(/C)C(=O)NC(=CC1=O)C2=O [17-AAG, Tanespimycin]	17 (≈ 9.96 µg/mL)	175	20.3 ± 2.5	below the detection limit				
CC1(C)C(/C=C/C=C/C=C/C=C2\N(CCCCS(=O)(=O)O)c3ccc4ccccc4c3C2(C)C)=[N+](CCCCS(=O)(=O)[O-])c2ccc3ccccc3c21 [ICG, indocyanine green]					about 50%	over 80%	rapidly cleared from the circulation	
CC(=O)O[C@H]1C(=O)[C@@]2(C)[C@H]([C@H](OC(=O)c3ccccc3)[C@]3(O)C[C@H](OC(=O)[C@H](O)[C@@H](NC(=O)c4ccccc4)c4ccccc4)C(C)=C1C3(C)C)[C@]1(OC(C)=O)CO[C@@H]1C[C@@H]2O [paclitaxel, Paclitaxel]		80	~40	below the detection limit				415.3±56.7
